Measurements taken from ChEMBL document CHEMBL1201862, “PubChem BioAssay data set” (2004).
Activity calls are given as the source filed them.

Legend:
[1] = A cytotoxicity screen of small molecule inhibitors of the PhoP region in Salmonella typhi identified in the primary screen. [Related pubchem assays: 1850, 1864, 1985 ]; type: functional
[2] = target: T1, Zinc finger protein mex-5 (Caenorhabditis elegans, UniProt Q9XUB2); test: potency of MEX-5 RNA-binding blockers – biochemical, C. elegans, fluorescence polarization, dose response (AID 1960)
T1 sequence (Q9XUB2 whole entry): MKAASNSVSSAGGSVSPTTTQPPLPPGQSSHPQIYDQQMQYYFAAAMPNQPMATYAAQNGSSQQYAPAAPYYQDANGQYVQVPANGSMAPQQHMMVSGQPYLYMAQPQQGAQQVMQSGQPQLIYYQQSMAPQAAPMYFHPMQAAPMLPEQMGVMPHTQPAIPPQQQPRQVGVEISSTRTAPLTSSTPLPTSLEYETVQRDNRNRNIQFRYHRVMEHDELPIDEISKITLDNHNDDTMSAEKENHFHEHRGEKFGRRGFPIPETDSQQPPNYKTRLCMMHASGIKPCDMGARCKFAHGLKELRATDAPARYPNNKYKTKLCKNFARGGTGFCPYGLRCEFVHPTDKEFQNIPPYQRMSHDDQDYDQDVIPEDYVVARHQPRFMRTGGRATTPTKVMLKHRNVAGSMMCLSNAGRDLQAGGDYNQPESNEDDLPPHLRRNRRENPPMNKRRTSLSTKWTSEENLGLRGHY

[3] = target: T2, RNA-binding protein pos-1 (Caenorhabditis elegans, UniProt G5EF15); test: disruptors of C. elegans POS-1 RNA interaction – biochemical, fluorescence polarization, dose response (AID 1964);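 also: purified POS-1 fused to maltose binding protein made in E. coli; potency of compounds blocking POS-1 binding to fluorescent RNA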
T2 sequence (G5EF15 whole entry): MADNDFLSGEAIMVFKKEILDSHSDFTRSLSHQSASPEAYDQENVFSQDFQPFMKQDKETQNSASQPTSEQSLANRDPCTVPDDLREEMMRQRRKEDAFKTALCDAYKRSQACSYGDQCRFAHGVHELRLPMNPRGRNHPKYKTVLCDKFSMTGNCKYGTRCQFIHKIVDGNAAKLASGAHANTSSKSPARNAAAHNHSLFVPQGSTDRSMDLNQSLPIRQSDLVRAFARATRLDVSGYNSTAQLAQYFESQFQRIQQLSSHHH

[4] = target: Voltage-dependent T-type calcium channel subunit alpha-1H (Homo sapiens, UniProt O95180); type: functional;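 also: channel activity triggered by adding a high calcium stimulation buffer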
[5] = target: Glyceraldehyde-3-phosphate dehydrogenase (Homo sapiens, UniProt P04406)
[6] = target: T3, Heat shock factor protein 1 (Mus musculus, UniProt P38532); test: enhancement of HSF1-driven luciferase signal – cell-based, NIH3T3, luminescence, dose retest, confirmation (AID 435004); type: functional;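 also: stress induced by proteasome inhibitor MG132 added 30 min after compound; luciferase reporter driven by HSF1 response element in NIH3T3 cells; actives raise luminescence as potentiators of the MG132 stress response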
T3 sequence (P38532 whole entry): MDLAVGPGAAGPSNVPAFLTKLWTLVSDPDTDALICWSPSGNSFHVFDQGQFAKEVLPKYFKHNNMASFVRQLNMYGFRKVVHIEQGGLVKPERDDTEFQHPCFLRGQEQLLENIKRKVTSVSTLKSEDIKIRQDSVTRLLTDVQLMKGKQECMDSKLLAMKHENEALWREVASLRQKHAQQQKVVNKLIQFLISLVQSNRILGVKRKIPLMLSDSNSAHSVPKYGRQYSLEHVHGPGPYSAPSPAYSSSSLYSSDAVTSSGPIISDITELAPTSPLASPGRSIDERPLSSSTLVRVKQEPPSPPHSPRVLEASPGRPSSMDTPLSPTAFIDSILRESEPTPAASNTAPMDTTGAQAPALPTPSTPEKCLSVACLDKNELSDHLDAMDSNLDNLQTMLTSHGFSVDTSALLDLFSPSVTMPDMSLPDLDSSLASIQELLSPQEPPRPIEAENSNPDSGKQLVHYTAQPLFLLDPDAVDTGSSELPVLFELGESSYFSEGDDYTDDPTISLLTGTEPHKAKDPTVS

[7] = Luminescence Cell-Based Dose Confirmation HTS to Identify Inhibitors of Platelet Dense Granule Release. [Related pubchem assays: 1663 (Primary HTS), 1678 (Summary of Project)]; type: functional
[8] = target: Luciferin 4-monooxygenase (Photinus pyralis, UniProt P08659); test: inhibition of purified Photinus pyralis luciferase – biochemical, luminescence, dose response (AID 1891)
cells = type: functional
[9] = NIH3T3 cell viability loss – ATP luminescence, mouse fibroblasts, counter-screen, dose response (AID 2010); type: functional, cell-based;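 also: cells exposed to compound for about 90 hours before reading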
[10] = Trypanosoma cruzi growth suppression in host cells – NIH3T3 host cells, beta-gal luminescence, confirmation (AID 2044); type: functional, cell-based;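 also: intracellular parasites grown in NIH/3T3 mouse fibroblasts as host cells; luminescent beta-galactosidase reporter signal from transgenic T. cruzi replicating inside host cells; inhibitors lower the luminescence signal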
[11] = target: T3, Heat shock factor protein 1; test: decrease of HSF1-responsive luciferase luminescence – cell-based, NIH3T3, dose retest, confirmation (AID 2382); type: functional;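 also: NIH3T3 fibroblasts with HSF1-driven luciferase reporter stressed by proteasome inhibitor MG132; luminescence from HSF1-driven luciferase expression after 8 hours of MG132 stress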
[12] = target: T4, Calpain-2 catalytic subunit (Sus scrofa, UniProt P43367); test: m-calpain protease blockers, concentration series – biochemical, fluorogenic peptide substrate, dose response (AID 1420); type: functional
T4 sequence (P43367 whole entry): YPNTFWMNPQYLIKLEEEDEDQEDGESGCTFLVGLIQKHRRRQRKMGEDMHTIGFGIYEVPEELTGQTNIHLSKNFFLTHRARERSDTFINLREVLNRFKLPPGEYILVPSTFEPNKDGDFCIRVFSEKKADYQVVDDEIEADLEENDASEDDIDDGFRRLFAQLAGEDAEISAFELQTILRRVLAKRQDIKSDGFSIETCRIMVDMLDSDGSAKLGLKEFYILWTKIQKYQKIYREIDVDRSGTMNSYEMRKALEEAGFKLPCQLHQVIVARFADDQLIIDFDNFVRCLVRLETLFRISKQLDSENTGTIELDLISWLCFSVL

[13] = Luminescence Cell-Based Dose Response HTS to Identify Activators of Luciferase Translation or Activity in H4 […] Cells. [Related pubchem assays: 1829 (Project Summary), 1814 (Primary HTS)]; type: functional
H4 = test: Luminescence Cell-Based Dose Response HTS to Identify Activators of 5'UTR Stem-Loop Driven Prion Protein mRNA Translation in H4 Neuroglioblastoma Cells. [Related pubchem assays: 1829 (Project Summary), 1814 (Primary HTS)]; type: functional; details: Homo sapiens
Nonstructural protein 1 = Nonstructural protein 1 (Influenza A virus, UniProt Q194T2); type: functional, Influenza A virus (A/California/07/2009(H1N1))
[14] = target: T5, Ubiquitin-conjugating enzyme E2 N (Homo sapiens, UniProt P61088); type: functional;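 also: Dose-response confirmation in a TR-FRET assay detecting UBC13-driven polyubiquitin chain formation, inhibition measured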
T5 sequence (P61088 whole entry): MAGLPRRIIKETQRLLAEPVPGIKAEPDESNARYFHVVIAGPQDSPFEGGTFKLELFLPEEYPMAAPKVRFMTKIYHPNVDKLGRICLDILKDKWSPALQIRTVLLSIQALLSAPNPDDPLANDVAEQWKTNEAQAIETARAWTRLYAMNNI

[15] = microbe, parasite or virus in culture; type: functional; details: Mycobacterium tuberculosis
[16] = target: Induced myeloid leukemia cell differentiation protein Mcl-1 (Homo sapiens, UniProt Q07820); type: functional
[17] = target: T6, Short transient receptor potential channel 4 (Mus musculus, UniProt Q9QUQ5); test: calcium entry via TRPC4 opening agents – cell-based, HEK293 TRPC4/mu-opioid, Fluo-4 calcium, dose response (AID 434937); type: functional
T6 sequence (Q9QUQ5 whole entry): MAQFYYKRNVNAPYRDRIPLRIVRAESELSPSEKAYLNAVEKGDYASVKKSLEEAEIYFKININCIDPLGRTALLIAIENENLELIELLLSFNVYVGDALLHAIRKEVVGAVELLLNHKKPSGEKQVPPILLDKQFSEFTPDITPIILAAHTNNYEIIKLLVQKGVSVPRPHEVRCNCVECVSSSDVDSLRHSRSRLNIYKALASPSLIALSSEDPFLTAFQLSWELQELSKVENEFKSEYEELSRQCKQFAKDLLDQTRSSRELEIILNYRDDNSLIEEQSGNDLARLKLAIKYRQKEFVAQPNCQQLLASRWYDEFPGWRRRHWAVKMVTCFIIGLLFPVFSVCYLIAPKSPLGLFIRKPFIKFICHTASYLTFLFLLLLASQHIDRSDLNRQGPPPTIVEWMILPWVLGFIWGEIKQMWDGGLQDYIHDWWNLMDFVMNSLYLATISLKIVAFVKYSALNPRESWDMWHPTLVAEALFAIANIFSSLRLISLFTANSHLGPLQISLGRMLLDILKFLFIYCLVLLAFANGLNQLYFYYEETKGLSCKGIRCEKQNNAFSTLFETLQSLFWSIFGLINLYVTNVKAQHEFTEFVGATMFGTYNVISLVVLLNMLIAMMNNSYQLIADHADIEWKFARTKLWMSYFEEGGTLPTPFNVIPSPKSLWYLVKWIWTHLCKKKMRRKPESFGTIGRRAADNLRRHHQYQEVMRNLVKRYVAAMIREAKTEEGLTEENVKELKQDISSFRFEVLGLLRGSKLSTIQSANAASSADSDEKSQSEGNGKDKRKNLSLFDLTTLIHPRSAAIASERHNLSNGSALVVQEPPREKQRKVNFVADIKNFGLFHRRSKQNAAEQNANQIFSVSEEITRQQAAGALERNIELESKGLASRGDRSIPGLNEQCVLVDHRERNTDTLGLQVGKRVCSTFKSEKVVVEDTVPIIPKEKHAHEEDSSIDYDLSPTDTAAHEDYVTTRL

Chain of Voltage-dependent T-type calcium channel subunit alpha-1H (O95180 whole entry): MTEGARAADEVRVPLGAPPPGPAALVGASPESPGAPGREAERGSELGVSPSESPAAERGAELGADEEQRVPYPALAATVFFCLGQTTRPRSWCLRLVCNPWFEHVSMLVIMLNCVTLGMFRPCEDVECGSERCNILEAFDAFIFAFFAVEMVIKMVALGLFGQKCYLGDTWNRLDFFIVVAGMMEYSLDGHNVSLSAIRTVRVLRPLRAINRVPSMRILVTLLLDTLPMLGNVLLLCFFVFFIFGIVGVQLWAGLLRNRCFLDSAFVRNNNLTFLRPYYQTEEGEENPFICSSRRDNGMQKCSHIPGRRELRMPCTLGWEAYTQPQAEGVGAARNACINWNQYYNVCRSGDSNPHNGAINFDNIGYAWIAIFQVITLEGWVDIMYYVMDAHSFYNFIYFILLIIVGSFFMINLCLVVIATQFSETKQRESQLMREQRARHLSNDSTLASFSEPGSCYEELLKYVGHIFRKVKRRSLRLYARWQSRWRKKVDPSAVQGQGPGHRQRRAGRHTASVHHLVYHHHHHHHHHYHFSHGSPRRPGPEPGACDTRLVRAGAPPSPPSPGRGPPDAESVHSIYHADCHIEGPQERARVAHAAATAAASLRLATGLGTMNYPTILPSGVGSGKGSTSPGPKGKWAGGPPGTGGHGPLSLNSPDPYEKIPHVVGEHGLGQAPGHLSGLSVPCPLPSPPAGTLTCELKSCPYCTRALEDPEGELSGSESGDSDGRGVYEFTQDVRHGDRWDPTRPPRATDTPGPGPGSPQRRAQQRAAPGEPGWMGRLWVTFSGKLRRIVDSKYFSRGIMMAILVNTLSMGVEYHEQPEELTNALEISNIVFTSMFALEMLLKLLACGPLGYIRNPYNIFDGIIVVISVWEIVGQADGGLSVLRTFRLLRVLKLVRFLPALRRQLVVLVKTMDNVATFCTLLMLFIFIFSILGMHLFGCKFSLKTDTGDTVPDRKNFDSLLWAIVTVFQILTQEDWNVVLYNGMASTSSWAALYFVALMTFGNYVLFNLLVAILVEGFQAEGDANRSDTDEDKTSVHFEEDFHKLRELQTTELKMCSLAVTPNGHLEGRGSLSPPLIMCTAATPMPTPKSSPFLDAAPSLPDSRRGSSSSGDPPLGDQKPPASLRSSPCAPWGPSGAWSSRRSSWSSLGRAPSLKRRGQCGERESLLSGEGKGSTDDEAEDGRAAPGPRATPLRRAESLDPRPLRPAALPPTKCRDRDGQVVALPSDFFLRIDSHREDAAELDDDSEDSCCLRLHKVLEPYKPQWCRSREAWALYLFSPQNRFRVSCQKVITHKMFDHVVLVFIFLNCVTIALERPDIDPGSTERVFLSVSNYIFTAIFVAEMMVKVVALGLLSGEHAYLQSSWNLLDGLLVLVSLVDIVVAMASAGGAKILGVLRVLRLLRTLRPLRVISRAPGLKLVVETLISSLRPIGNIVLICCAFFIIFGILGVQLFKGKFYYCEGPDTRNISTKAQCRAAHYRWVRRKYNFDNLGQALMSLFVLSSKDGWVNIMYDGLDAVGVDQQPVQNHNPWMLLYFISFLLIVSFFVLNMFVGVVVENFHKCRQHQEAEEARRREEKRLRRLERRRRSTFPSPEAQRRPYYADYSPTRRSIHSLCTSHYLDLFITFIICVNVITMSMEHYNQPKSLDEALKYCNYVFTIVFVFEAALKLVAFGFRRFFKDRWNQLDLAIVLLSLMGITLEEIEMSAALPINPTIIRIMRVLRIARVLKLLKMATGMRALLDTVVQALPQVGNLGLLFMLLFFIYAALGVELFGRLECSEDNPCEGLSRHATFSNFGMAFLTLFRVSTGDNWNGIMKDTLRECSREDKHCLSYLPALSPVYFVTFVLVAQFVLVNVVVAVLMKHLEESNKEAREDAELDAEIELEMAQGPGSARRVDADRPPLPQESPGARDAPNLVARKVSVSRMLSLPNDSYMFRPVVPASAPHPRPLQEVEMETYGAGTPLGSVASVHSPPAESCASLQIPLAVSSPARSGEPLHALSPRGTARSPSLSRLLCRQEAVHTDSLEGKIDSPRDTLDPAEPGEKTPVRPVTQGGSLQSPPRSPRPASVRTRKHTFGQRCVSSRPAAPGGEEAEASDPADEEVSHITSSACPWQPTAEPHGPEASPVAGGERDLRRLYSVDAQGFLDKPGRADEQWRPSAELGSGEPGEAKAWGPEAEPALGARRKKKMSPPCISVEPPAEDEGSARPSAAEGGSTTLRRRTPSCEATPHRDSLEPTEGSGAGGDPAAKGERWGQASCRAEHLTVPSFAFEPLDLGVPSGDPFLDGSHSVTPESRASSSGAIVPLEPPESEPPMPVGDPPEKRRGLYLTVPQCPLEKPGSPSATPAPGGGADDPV
Chain of Nonstructural protein 1 (Q194T2 whole entry): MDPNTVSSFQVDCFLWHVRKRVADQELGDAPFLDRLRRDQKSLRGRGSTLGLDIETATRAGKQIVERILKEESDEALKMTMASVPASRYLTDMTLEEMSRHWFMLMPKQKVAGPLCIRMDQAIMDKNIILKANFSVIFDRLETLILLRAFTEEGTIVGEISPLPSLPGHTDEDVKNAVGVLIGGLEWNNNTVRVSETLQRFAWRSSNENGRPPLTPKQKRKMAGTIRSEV
Chain of Glyceraldehyde-3-phosphate dehydrogenase (P04406 whole entry): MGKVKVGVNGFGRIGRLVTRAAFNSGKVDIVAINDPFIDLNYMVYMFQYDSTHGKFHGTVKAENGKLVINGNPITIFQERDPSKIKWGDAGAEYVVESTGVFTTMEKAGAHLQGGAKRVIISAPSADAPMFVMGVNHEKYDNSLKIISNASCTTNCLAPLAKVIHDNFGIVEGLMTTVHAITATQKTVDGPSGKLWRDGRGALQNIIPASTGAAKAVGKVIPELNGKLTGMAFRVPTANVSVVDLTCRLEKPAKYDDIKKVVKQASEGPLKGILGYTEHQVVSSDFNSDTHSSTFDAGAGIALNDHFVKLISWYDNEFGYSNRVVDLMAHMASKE
Chain of Luciferin 4-monooxygenase (P08659 whole entry): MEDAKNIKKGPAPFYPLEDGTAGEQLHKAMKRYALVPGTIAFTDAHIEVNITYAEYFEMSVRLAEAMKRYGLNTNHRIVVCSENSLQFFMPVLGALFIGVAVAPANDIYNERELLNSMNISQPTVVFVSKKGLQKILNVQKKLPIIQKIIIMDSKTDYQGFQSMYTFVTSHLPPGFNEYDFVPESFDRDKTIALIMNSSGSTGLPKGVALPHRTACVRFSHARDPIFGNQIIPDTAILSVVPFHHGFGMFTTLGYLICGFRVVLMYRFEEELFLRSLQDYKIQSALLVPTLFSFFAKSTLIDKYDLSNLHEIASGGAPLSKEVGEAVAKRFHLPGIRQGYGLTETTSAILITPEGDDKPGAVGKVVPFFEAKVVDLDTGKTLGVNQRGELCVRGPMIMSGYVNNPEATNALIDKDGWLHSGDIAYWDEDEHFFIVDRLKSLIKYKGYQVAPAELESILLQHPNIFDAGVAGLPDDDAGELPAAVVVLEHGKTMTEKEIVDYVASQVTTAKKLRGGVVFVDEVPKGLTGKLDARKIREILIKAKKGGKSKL
Chain of Induced myeloid leukemia cell differentiation protein Mcl-1 (Q07820 whole entry): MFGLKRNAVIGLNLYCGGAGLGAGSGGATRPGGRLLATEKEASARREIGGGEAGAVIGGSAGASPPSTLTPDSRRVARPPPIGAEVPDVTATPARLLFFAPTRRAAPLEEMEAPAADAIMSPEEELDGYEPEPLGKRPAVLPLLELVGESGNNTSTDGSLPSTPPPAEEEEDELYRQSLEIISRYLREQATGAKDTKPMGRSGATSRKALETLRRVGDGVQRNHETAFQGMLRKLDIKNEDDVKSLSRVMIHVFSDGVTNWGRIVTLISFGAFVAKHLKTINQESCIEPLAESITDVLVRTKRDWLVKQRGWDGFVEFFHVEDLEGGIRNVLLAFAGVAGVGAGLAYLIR

In the case of `Fc1ccc(CCNCc2ccccc2Cl)cc1`, the EC50 [1] is reported as > 50 µM (active).
In the case of `CCN1C(=O)/C(=C/c2c(C)nn(C)c2C)SC1=S`, the EC50 [2] is reported as 189 µM (inconclusive) and the EC50 [3] is reported as 254 µM (inconclusive).
For `COc1ccc(NC(=O)C(Cc2ccccc2)n2cccc2)cc1` (centres undefined), the EC50 [1] was > 50 µM (active).
In the case of `Cc1ccc(S(=O)(=O)NCC(=O)N(CC(=O)NCc2ccco2)Cc2ccc3c(c2)OCO3)cc1`, the EC50 [4] is reported as 3.4 µM (active).
With `COc1cccc(N2CCN(C3=C(Cl)C(=O)N(c4cccc(C)c4)C3=O)CC2)c1` the IC50 [5] was > 50 µM (inconclusive).
In the case of `Cc1nc2c(-c3ccc(F)cc3)c(C)nn2c(C)c1CCC(=O)N1CCC(Cc2ccccc2)CC1`, the EC50 [4] is reported as 6.64 µM (active).
In the case of `O=C1C(Cl)=C(N2CCN(C/C=C/c3ccccc3)CC2)C(=O)N1c1cccc(C(F)(F)F)c1`, the IC50 [5] is reported as > 50 µM (inconclusive).
In the case of `CCn1c(SCCOc2ccc(Cl)cc2)nnc1-c1cccs1`, the EC50 [4] is reported as 5.63 µM (active) and the EC50 [6] is reported as > 260 µM (inactive).
In the case of `COc1cc(/C=C2/C(=O)NN(c3cccc(F)c3)C2=O)ccc1OC(=O)c1ccco1`, the EC50 [7] is reported as > 112 µM (not active), the EC50 [8] is reported as > 112 µM (not active) and the IC50 (cells) is reported as 16.7 µM (active).
For `Cc1cccc(N2CCN(Cc3ccc([N+](=O)[O-])o3)CC2)c1C`, the EC50 [9] was > 60 µM (not active), the EC50 [10] was 1.36 µM (active) and the IC50 (cells) was 0.37 µM (active).
With `Cc1ccc(Cn2c(=N)c(C(=O)NCCN3CCOCC3)cc3c(=O)n4ccccc4nc32)cc1` the EC50 [1] was > 50 µM (active).
For `CNC(=O)NC(=O)COC(=O)c1ccc(-n2c(C)ccc2C)cc1`, the EC50 [2] was > 300 µM (not active), the EC50 [3] was > 300 µM (not active) and the EC50 [11] was > 195 µM (not active).
In the case of `FC(F)(F)C1CC(c2cccs2)Nc2ncnn21` (centres undefined), the IC50 [12] is reported as 0.904 µM (not active).
With `O=C(Nc1cnc2ccccc2c1)C1COc2ccccc2O1` (centres undefined) the EC50 [4] was 2.93 µM (active), the EC50 [13] was < 0.1 µM (active) and the EC50 (H4) was 37.6 µM (active).
With `CC1CCc2c(sc3c2C2=NS(=O)(=O)CCN2C=N3)C1` (centres undefined) the IC50 [12] was 9.53 µM (not active).
With `O=C1C(Cl)=C(N2CCN(CCO)CC2)C(=O)N1c1ccc(Cl)nc1` the IC50 [5] was > 50 µM (inconclusive).
For `Cc1ncc(N=Nc2ccccc2Cl)c(-c2ccccc2)n1`, the IC50 (Nonstructural protein 1) was 39.1 µM (active).
For `COC(=O)COc1ccc2c(-c3ccc(OC)cc3)cc(=O)oc2c1`, the IC50 (cells) was 1.43 µM (active).
For `Nc1nc2ccccc2cc1-c1cccs1`, the EC50 [1] was > 50 µM (active).
For `Cn1c(=O)cc(SCC(=O)N2CCN(C3CCCCC3)CC2)c2ccccc21`, the IC50 [14] was > 20 µM (inactive) and the EC50 [1] was > 50 µM (active).
For `Cc1onc(-c2ccccc2Cl)c1C(=O)Nc1ccc(F)c(F)c1`, the EC50 [4] was 5.58 µM (active), the EC50 [7] was > 112 µM (not active) and the EC50 [8] was > 112 µM (not active).
For `CCOC(=O)C1(CC2CCCCO2)CCN(C(=O)Nc2ccc(C)c(C)c2)CC1` (centres undefined), the IC50 [12] was > 50 µM (not active).
For `Cc1c(N2C(=O)/C(=C/c3cccc4ccccc34)SC2=S)c(=O)n(-c2ccccc2)n1C`, the IC50 (Nonstructural protein 1) was > 100 µM (active).
With `CCN(CC)c1ccc(C(=C2C=CC(=[N+](CC)CC)C=C2)c2ccc(S(=O)(=O)O)cc2S(=O)(=O)[O-])cc1` the IC50 (Nonstructural protein 1) was 17.7 µM (active).
For `CN1CCN(/N=C/c2c3ccccc3c(Cl)c3ccccc23)CC1`, the IC50 (Nonstructural protein 1) was 24.9 µM (active) and the CC50 [15] was 24 µM (active).
With `CN1Cc2c(c(C#N)c(N)n(C)c2=S)CC1(C)C` the EC50 [2] was 29.1 µM (active) and the EC50 [3] was 35.4 µM (active).
With `Cc1nccn1CC(=O)N/N=C/c1ccccc1O` the IC50 (Nonstructural protein 1) was 18.4 µM (active).
For `CCCCN(CC)CC/N=c1/c(N2CCN(C(=O)OCC)CC2)c(O)c1=O`, the IC50 [16] was 0.433 µM (active) and the EC50 [17] was 1.68 µM (active).
